{"source": "patent US10308649B2", "about": "“Compounds and methods to suppress autoimmune response” (Oregon State University, priority 2014, dated 2019)", "key": {"[1]": {"assay": "Clinical chemistry profile from toxicology screen of NOD mice", "type": "in vivo, mouse", "conditions": "20 weeks of age", "source_text": "The results listed in Table 1 illustrate an absence of clinical signs of toxicity after prolonged treatment with AHRL1. Table 1 lists the results of a clinical chemistry profile from a toxicology screen of the AHRL1 treated, TCDD treated, and vehicle treated mice. The clinical chemistry panel includes tests for substances in the blood that have biological functions, metabolites or waste products, and substances that indicate cell damage or disease. The concentrations of the substances listed in Table 1 were measured at 20 weeks of age. The concentrations are reported as milligrams per deciliter (mg/dl), grams per deciliter (g/dl), units per liter (U/L), or milli equivalents per liter (mEq/L).\nFIGS. 18a-18r show the clinical chemistry profile from a toxicology screen for three groups: AHRL1 treated mice, vehicle treated mice, and untreated mice. For the test group, the mice were treated with AHRL1. The vehicle given was the carrier for the AHRL1 compound. The carrier included 30% DMSO, 20% Cremaphor, and 50% Peceol. The mice were tested after 12 weeks of exposure. The clinical chemistry panel includes tests for substances in the blood that have biological functions, metabolites or waste products, and substances that indicate cell damage or disease."}, "NOD mice": {"system": "NOD mice", "assay": "Flow cytometry of leukocyte composition of pancreas, PLN and spleen of NOD mice", "type": "in vivo, mouse", "protocol": "The leukocyte composition of the pancreas and draining lymph nodes was analyzed at 12, 15, and 20 weeks of age using flow cytometry. Mice were sacrificed at 12, 15, and 20 weeks of age, draining lymph nodes and pancreata were excised, and single cell suspensions were prepared for analysis with flow cytometry. Fc receptors were blocked with rat immunoglobulin G (IgG) acquired from Jackson ImmunoResearch. The cells were stained with the following antibodies: CD4 (RM4, eBioscience), CD8 (53-6.7, eBioscience), CD19 (1D3, eBioscience), CD45 (30-F11, BD Biosciences), Foxp3 (FJK-16s, eBioscience), Nrp1 (3DS304M, eBioscience), CD25 (PC61.5, eBioscience), RORγt (AFKJS-9, eBioscience). For intracellular staining, cells were fixed and permeabilized using a Foxp3 Fixation/Permeabilization buffer acquired from eBioscience (San Diego, Calif.). Data were acquired using a FC-500 flow cytometer (BECKMAN COULTER) and compensated and analyzed using FLOWJO software. Fluorescence minus one (FMO) controls were used for setting gates for analysis.\nFIGS. 3a-3f illustrate results comparing the leukocyte composition of the vehicle treated NOD mice to the ARHL1 treated NOD mice from FIG. 2b. The leukocyte composition of the vehicle treated NOD mice to the ARHL1 treated NOD mice was analyzed at 12 weeks of age. Student's t-test was used for analysis. Sample size of n=5-9 mice per group was used. A single asterisk (*) signifies p≤0.05; a double asterisk (**) signifies p≤0.01; a triple asterisk (***) signifies p≤0.001.\nFIGS. 4a-4t illustrate results comparing leukocyte composition of draining lymph nodes in vehicle treated, AHRL1 treated, and TCDD treated NOD mice at 12, 15, and 20 weeks of age. Seven-week-old NOD mice were treated with vehicle, AHRL1, or TCDD as described with reference to FIG. 2b. At 12 weeks of age, 15 weeks of age, and 20 weeks of age, the draining lymph nodes were excised from the mice and stained with CD4 antibodies and Foxp3 antibodies. The results were analyzed by flow cytometry and plotted as average +/−standard deviation (s.d.). A sample size of n=5-9 mice per group was used. A single asterisk (*) signifies p≤0.05."}, "NOD.Foxp3DTR mice": {"system": "NOD.Foxp3DTR mice", "assay": "Flow cytometry of PLN cells of NOD.Foxp3DTR mice", "type": "in vivo, mouse", "protocol": "FIG. 6a illustrates details of the mouse model used to analyze the therapeutic effects and mechanisms by which AhR activation alters T cell differentiation. […] Arrows 152 illustrate the NOD.Foxp3^DTR mice were orally dosed with 60 mg/kg AHRL1 on days −1, 1, 3, 5, and 7 relative to DT treatment on day 0. The carrier for AHRL1 was a 30% DMSO, 20% CREMAPHOR, 50% PECEOL solution. Data was also collected from NOD.Foxp3^DTR mice treated with TCDD on day −1 relative to DT treatment on day 0. […] Non-obese diabetic Foxp3 wild type (NOD.Foxp3^WT) mice treated with DT and NOD.Foxp3^DTR mice treated with vehicle were used as controls. The vehicle was the carrier for AHRL1. Arrow 158 illustrates sacrifice of the mice on day 9.\nThe leukocyte composition of the pancreas and draining lymph nodes was analyzed using flow cytometry. Draining lymph nodes and pancreata were excised from the sacrificed mice, and single cell suspensions were prepared for analysis with flow cytometry. […] Data were acquired using an FC-500 flow cytometer (BECKMAN COULTER) and compensated and analyzed using FLOWJO software. […]"}, "B6D2F1 host mice": {"system": "B6D2F1 host mice", "assay": "15-day GVHD model in B6D2F1 host mice", "type": "in vivo, mouse", "procedure": "GVHD was established using donor cells obtained from wild type or AhR-deficient mice. B6D2F1 host mice were injected with wild type (WT) or AhR^−/− splenocytes to initiate the graft versus host (GVH) response. Due to a limited number of AhR-deficient mice available, whole splenocytes rather than purified T cells were used to initiate the GVH response. Host mice were given AHRL1 or vehicle treatments daily for 15 days. The vehicle consisted of a mixture of 6.7% anisole and peanut oil. A single loading dose of 10 mg/kg AHRL1 was given at the time of donor cell injection and a maintenance dose of 2 mg/kg AHRL1 was given every day thereafter until termination of the experiment on day 15.\nThe progression of GVHD in the host mice was monitored and a clinical GVHD pathology score was calculated. At termination of the 15-day study, each animal was evaluated and given a clinical GVHD pathology score based on five criteria: changes in weight, posture, activity, fur texture, and mortality. The clinical GVHD pathology score was assessed on a scale of 0 to 3, where 0 was normal, 1 was moderate morbidity, 2 was severe morbidity, and 3 was death.\nIn a separate study, the effect of AHRL1 on donor cell engraftment was examined and directly compared with the effect of TCDD. B6D2F1 host mice in groups of 6 were injected with splenocytes from C57Bl/6 mice to initiate the GVH response, and treated with AHRL1 or vehicle daily for 15 days. The vehicle consisted of a mixture of 6.7% anisole and peanut oil. A single loading dose of 10 mg/kg AHRL1 was given at the time of donor cell injection and a maintenance dose of 2 mg/kg AHRL1 was given every day thereafter until termination of the experiment on day 15. 15 μg/kg of TCDD was given to an additional group of 6 mice on day 0 as a positive control. […] The donor cells were identified in the host spleen as the H-2D^d negative population."}, "CYP1A1": {"system": "CYP1A1", "assay": "CYP1A1 mRNA induction in Hepa-1 cells", "conditions": "1 nM", "procedure": "The levels of CYP1A1 expression were determined by measuring CYP1A1 messenger ribonucleic acid (mRNA) levels."}}, "data": [{"compound": "Clc1cc2c(cc1Cl)Oc1cc(Cl)c(Cl)cc1O2", "note": "[TCDD, 2,3,7,8-tetrachlorodibenzo-p-dioxin]", "values": [{"measurement": "Alanine Aminotransferase (ALT)", "setting": "[1]", "value": "24.0 ± 2.5", "unit": "U/L"}, {"measurement": "Albumin", "setting": "[1]", "value": "3.4 ± 0.1", "unit": "g/dL"}, {"measurement": "Alkaline Phosphatase", "setting": "[1]", "value": "80.0 ± 14.7", "unit": "U/L"}, {"measurement": "Anion Gap", "setting": "[1]", "value": "34.0 ± 1.2", "unit": "mEq/L"}, {"measurement": "Bicarbonate (tCO2)", "setting": "[1]", "value": "18.6 ± 1.4", "unit": "mEq/L"}, {"measurement": "Bilirubin, Total", "setting": "[1]", "value": "0.43 ± 0.64", "unit": "mg/dL"}, {"measurement": "Blood Urine Nitrogen (BUN)", "setting": "[1]", "value": "20.0 ± 2.7", "unit": "mg/dL"}, {"measurement": "Calcium", "setting": "[1]", "value": "10.8 ± 0.4", "unit": "mg/dL"}, {"measurement": "Chloride", "setting": "[1]", "value": "109.5 ± 1.7", "unit": "mEq/L"}, {"measurement": "Cholesterol", "setting": "[1]", "value": "91.9 ± 5.1", "unit": "mg/dL"}, {"measurement": "Creatinine", "setting": "[1]", "value": "0.3 ± 0.1", "unit": "mg/dL"}, {"measurement": "Creatinine Kinase (CK)", "setting": "[1]", "value": "398.3 ± 248.7", "unit": "U/L"}, {"measurement": "Gamma-glutamyl transferase (GGT)", "setting": "[1]", "value": "0.0 ± 0.0", "unit": "U/L"}, {"measurement": "Phosphorous", "setting": "[1]", "value": "8.2 ± 1.2", "unit": "mg/dL"}, {"measurement": "Potassium", "setting": "[1]", "value": "9.7 ± 0.4", "unit": "mEq/L"}, {"measurement": "Sodium", "setting": "[1]", "value": "151.9 ± 2.4", "unit": "mEq/L"}, {"measurement": "Total Protein", "setting": "[1]", "value": "5.6 ± 0.2", "unit": "g/dL"}, {"measurement": "percentage of CD4+Foxp3- cells that were Nrp1+", "setting": "NOD mice; NOD.Foxp3WT mice, 20 weeks of age", "value": "decrease"}, {"measurement": "percentage of Foxp3+ cells gated on CD4+ cells", "setting": "NOD mice; PLN, 12 weeks of age", "value": "higher percentage"}, {"measurement": "percentage of Foxp3+ cells gated on CD4+ cells", "setting": "NOD mice; PLN, 15 weeks of age", "value": "higher percentage"}, {"measurement": "percentage of Foxp3+ cells gated on CD4+ cells", "setting": "NOD mice; PLN, 20 weeks of age", "value": "higher percentage"}, {"measurement": "percentage of Foxp3+ cells gated on CD4+ cells", "setting": "NOD mice; spleen, 12 weeks of age, vs vehicle", "value": "higher percentage"}, {"measurement": "percentage of Foxp3+ cells gated on CD4+ cells", "setting": "NOD mice; spleen, 15 weeks of age, vs vehicle", "value": "higher percentage"}, {"measurement": "percentage of Foxp3+ cells gated on CD4+ cells", "setting": "NOD mice; spleen, 20 weeks of age, vs vehicle", "value": "higher percentage"}, {"measurement": "percentage of CD4+Foxp3- cells that were Nrp1+", "setting": "NOD.Foxp3DTR mice; DT treated NOD.Foxp3DTR mice", "value": "decreased"}, {"measurement": "percentage of CD4+Foxp3- cells that were RORγt+", "setting": "NOD.Foxp3DTR mice; TCDD treated mice", "value": 0.42, "unit": "%"}, {"measurement": "total number of donor CD4+ and CD8+ T cells engrafted in the host spleen", "setting": "B6D2F1 host mice; day 15, AHRL1 10 mg/kg then 2 mg/kg daily, TCDD 15 μg/kg day 0", "value": "reduced total number"}, {"measurement": "percentage and number of activated donor CD8+ T cells expressing a CTL phenotype (CD8+CD44hiCD45RBlow)", "setting": "B6D2F1 host mice; host spleen, day 15", "value": "reduce the percentage and number"}, {"measurement": "percentage and number of host B cells (CD19+ cells)", "setting": "B6D2F1 host mice; host spleen, day 15, vs vehicle", "value": "increased percentage and number"}, {"measurement": "CYP1A1 mRNA induction", "setting": "CYP1A1", "value": "comparable level of induction"}]}]}
